Data published in patent US10562887B2, “Triazolones and tetrazolones as inhibitors of ROCK” (BRISTOL-MYERS SQUIBB COMPANY, priority 2016, dated 2020).

What follows are compounds tested against ROCK2 (Homo sapiens (Human), UniProt O75116) (assay: ROCK2 assay (peptide phosphorylation, LABCHIP 3000 Reader)). Settings: 5 μM ATP, 1.5 μM peptide substrate.
Assay type: biochemical
In short: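 Human ROCK2 reaction in 20 mM HEPES pH 7.5, 20 mM MgCl2, 0.015% Brij-35, 4 mM DTT, with 5 μM ATP and 1.5 μM FITC-labelled peptide, DMSO <2%. Stopped with EDTA; phosphorylated and unphosphorylated peptide separated by microfluidic mobility shift. IC50 from dose-response curve fit.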

Sequence of ROCK2 (O75116 whole entry, species assumed): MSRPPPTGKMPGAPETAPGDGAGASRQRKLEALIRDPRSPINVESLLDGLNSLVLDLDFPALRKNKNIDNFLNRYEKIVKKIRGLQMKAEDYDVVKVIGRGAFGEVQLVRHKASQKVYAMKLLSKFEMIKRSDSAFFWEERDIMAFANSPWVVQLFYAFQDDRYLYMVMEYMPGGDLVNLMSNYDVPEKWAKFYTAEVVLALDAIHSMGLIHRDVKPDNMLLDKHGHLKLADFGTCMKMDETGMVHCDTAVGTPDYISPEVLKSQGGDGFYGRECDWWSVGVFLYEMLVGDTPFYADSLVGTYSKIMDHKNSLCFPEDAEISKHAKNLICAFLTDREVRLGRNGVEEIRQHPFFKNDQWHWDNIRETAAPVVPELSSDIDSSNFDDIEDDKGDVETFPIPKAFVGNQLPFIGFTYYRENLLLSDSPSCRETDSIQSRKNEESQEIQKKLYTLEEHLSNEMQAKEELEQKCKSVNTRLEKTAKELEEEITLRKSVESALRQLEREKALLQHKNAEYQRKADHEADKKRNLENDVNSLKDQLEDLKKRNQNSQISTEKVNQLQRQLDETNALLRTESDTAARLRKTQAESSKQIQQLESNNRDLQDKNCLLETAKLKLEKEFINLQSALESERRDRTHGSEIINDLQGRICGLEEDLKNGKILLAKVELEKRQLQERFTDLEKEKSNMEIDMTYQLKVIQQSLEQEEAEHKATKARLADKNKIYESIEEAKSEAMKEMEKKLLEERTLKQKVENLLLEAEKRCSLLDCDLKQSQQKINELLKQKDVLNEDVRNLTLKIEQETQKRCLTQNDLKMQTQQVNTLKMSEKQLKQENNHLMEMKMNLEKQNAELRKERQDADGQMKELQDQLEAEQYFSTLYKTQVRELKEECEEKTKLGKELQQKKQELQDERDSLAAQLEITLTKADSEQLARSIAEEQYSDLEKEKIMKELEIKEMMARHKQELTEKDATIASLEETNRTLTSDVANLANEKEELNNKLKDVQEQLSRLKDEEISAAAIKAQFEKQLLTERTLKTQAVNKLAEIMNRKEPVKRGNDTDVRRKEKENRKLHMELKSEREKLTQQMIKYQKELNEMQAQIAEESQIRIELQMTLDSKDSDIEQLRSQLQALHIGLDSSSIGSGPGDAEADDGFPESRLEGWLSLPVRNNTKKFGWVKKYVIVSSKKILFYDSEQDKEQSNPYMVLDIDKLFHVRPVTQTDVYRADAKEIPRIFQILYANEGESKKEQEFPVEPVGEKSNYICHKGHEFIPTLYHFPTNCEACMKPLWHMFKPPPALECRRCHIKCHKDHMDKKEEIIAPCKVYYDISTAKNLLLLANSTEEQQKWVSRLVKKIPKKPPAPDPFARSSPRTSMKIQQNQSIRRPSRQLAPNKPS

Row | Structure (SMILES) | IC50
1 | N#Cc1cccc(Cn2c(CO)nn(-c3ccc(-c4cn[nH]c4)cc3)c2=O)c1 [Example 132, 3-((1-(4-(1H-pyrazol-4-yl)phenyl)-3-(hydroxymethyl)-5-oxo-1H-1,2,4-triazol-4(5H)-yl)methyl)benzonitrile] | 50 to 250 nM
2 | CC(C)(O)c1nn(-c2ccc(-c3cn[nH]c3)cc2)c(=O)n1Cc1ccccc1 [Example 133, 1-(4-(1H-pyrazol-4-yl)phenyl)-4-benzyl-3-(2-hydroxypropan-2-yl)-1H-1,2,4-triazol-5(4H)-one] | 5 to 50 nM
3 | COc1cccc(Cn2c(C(C)(C)O)nn(-c3ccc(-c4cn[nH]c4)cc3)c2=O)c1 [Example 134, 1-(4-(1H-pyrazol-4-yl)phenyl)-3-(2-hydroxypropan-2-yl)-4-(3-methoxybenzyl)-1H-1,2,4-triazol-5(4H)-one] | < 5 nM
4 | CC(C)(O)c1nn(-c2ccc(-c3cn[nH]c3)cc2)c(=O)n1Cc1cccc(F)c1 [Example 135, 1-(4-(1H-pyrazol-4-yl)phenyl)-4-(3-fluorobenzyl)-3-(2-hydroxypropan-2-yl)-1H-1,2,4-triazol-5(4H)-one] | 5 to 50 nM
5 | CC(C)(O)c1nn(-c2ccc(-c3cn[nH]c3)cc2)c(=O)n1Cc1cc(F)ccc1F [Example 136, 1-(4-(1H-pyrazol-4-yl)phenyl)-4-(2,5-difluorobenzyl)-3-(2-hydroxypropan-2-yl)-1H-1,2,4-triazol-5(4H)-one] | 50 to 250 nM
6 | CC(C)(O)c1nn(-c2ccc(-c3cn[nH]c3)cc2)c(=O)n1Cc1cc(F)cc(F)c1 [Example 137, 1-(4-(1H-pyrazol-4-yl)phenyl)-4-(3,5-difluorobenzyl)-3-(2-hydroxypropan-2-yl)-1H-1,2,4-triazol-5(4H)-one] | 5 to 50 nM
7 | CC(C)(O)c1nn(-c2ccc(-c3cn[nH]c3)cc2)c(=O)n1Cc1c(F)cccc1F [Example 138, 1-(4-(1H-pyrazol-4-yl)phenyl)-4-(2,6-difluorobenzyl)-3-(2-hydroxypropan-2-yl)-1H-1,2,4-triazol-5(4H)-one] | 50 to 250 nM
8 | CC(C)(O)c1nn(-c2ccc(-c3cn[nH]c3)cc2)c(=O)n1Cc1cccc(OC(F)F)c1 [Example 139, 1-(4-(1H-pyrazol-4-yl)phenyl)-4-(3-(difluoromethoxy)benzyl)-3-(2-hydroxypropan-2-yl)-1H-1,2,4-triazol-5(4H)-one] | 50 to 250 nM
9 | COc1cccc(Cn2c(CN(C)C)nn(-c3ccc(-c4cn[nH]c4)cc3)c2=O)c1 [Example 142, 1-(4-(1H-pyrazol-4-yl)phenyl)-3-((dimethylamino)methyl)-4-(3-methoxybenzyl)-1H-1,2,4-triazol-5(4H)-one] | 5 to 50 nM
10 | COc1cccc(Cn2c(CN3CCOCC3)nn(-c3ccc(-c4cn[nH]c4)cc3)c2=O)c1 [Example 143, 1-(4-(1H-pyrazol-4-yl)phenyl)-4-(3-methoxybenzyl)-3-(morpholinomethyl)-1H-1,2,4-triazol-5(4H)-one] | 5 to 50 nM
11 | COc1cc(F)cc(Cn2c(CO)nn(-c3ccc(-c4cn[nH]c4)cc3)c2=O)c1 [Example 144, 1-(4-(1H-pyrazol-4-yl)phenyl)-4-(3-fluoro-5-methoxybenzyl)-3-(hydroxymethyl)-1H-1,2,4-triazol-5(4H)-one] | < 5 nM
12 | COc1cc(F)cc(Cn2c(C(C)(C)O)nn(-c3ccc(-c4cn[nH]c4)cc3)c2=O)c1 [Example 145, 1-(4-(1H-pyrazol-4-yl)phenyl)-4-(3-fluoro-5-methoxybenzyl)-3-(2-hydroxypropan-2-yl)-1H-1,2,4-triazol-5(4H)-one] | 5 to 50 nM
13 | COc1cccc(Cn2c(CN3CCCC3)nn(-c3ccc(-c4cn[nH]c4)cc3)c2=O)c1 [Example 146, 1-(4-(1H-pyrazol-4-yl)phenyl)-4-(3-methoxybenzyl)-3-(pyrrolidin-1-ylmethyl)-1H-1,2,4-triazol-5(4H)-one] | 5 to 50 nM
14 | COc1cc(F)cc(Cn2c(CN(C)C)nn(-c3ccc(-c4cn[nH]c4)cc3)c2=O)c1 [Example 148, 1-(4-(1H-pyrazol-4-yl)phenyl)-3-((dimethylamino)methyl)-4-(3-fluoro-5-methoxybenzyl)-1H-1,2,4-triazol-5(4H)-one] | 5 to 50 nM
15 | COc1cc(F)cc(Cn2c(CN3CCOCC3)nn(-c3ccc(-c4cn[nH]c4)cc3)c2=O)c1 [Example 149, 1-(4-(1H-pyrazol-4-yl)phenyl)-4-(3-fluoro-5-methoxybenzyl)-3-(morpholinomethyl)-1H-1,2,4-triazol-5(4H)-one] | 5 to 50 nM
16 | COc1cc(F)cc(Cn2c(CN3CCCC3)nn(-c3ccc(-c4cn[nH]c4)cc3)c2=O)c1 [Example 150, 1-(4-(1H-pyrazol-4-yl)phenyl)-4-(3-fluoro-5-methoxybenzyl)-3-(pyrrolidin-1-ylmethyl)-1H-1,2,4-triazol-5(4H)-one] | 5 to 50 nM
17 | COc1cc(F)cc(Cn2c(CNCCO)nn(-c3ccc(-c4cn[nH]c4)cc3)c2=O)c1 [Example 151, 1-(4-(1H-pyrazol-4-yl)phenyl)-4-(3-fluoro-5-methoxybenzyl)-3-(((2-hydroxyethyl)amino)methyl)-1H-1,2,4-triazol-5(4H)-one] | 5 to 50 nM
18 | COc1cc(F)cc(Cn2c(CN3CCNCC3)nn(-c3ccc(-c4cn[nH]c4)cc3)c2=O)c1 [Example 152, 1-(4-(1H-pyrazol-4-yl)phenyl)-4-(3-fluoro-5-methoxybenzyl)-3-(piperazin-1-ylmethyl)-1H-1,2,4-triazol-5(4H)-one] | 5 to 50 nM

Row | Structure (SMILES) | IC50
19 | COc1cc(F)cc(Cn2c(CNC(C)CO)nn(-c3ccc(-c4cn[nH]c4)cc3)c2=O)c1 (centres unmarked) [Example 153, 1-(4-(1H-pyrazol-4-yl)phenyl)-4-(3-fluoro-5-methoxybenzyl)-3-(((1-hydroxypropan-2-yl)amino)methyl)-1H-1,2,4-triazol-5(4H)-one] | 5 to 50 nM
20 | COc1cc(F)cc(Cn2c(CN3CCC(O)C3)nn(-c3ccc(-c4cn[nH]c4)cc3)c2=O)c1 (centres unmarked) [Example 155, 1-(4-(1H-pyrazol-4-yl)phenyl)-4-(3-fluoro-5-methoxybenzyl)-3-((3-hydroxypyrrolidin-1-yl)methyl)-1H-1,2,4-triazol-5(4H)-one] | 5 to 50 nM
21 | COc1cccc(Cn2c(CN3CCC(O)C3)nn(-c3ccc(-c4cn[nH]c4)cc3)c2=O)c1 (centres unmarked) [Example 156, 1-(4-(1H-pyrazol-4-yl)phenyl)-3-((3-hydroxypyrrolidin-1-yl)methyl)-4-(3-methoxybenzyl)-1H-1,2,4-triazol-5(4H)-one] | 5 to 50 nM
22 | COc1ccc(F)cc1Cn1c(CO)nn(-c2ccc(-c3cn[nH]c3)cc2)c1=O [Example 157, 1-(4-(1H-pyrazol-4-yl)phenyl)-4-(5-fluoro-2-methoxybenzyl)-3-(hydroxymethyl)-1H-1,2,4-triazol-5(4H)-one] | 50 to 250 nM
23 | COc1cc(Cn2c(CO)nn(-c3ccc(-c4cn[nH]c4)cc3)c2=O)ccc1F [Example 158, 1-(4-(1H-pyrazol-4-yl)phenyl)-4-(4-fluoro-3-methoxybenzyl)-3-(hydroxymethyl)-1H-1,2,4-triazol-5(4H)-one] | 5 to 50 nM
24 | COc1ccc(Cn2c(CO)nn(-c3ccc(-c4cn[nH]c4)cc3)c2=O)cc1F [Example 159, 1-(4-(1H-pyrazol-4-yl)phenyl)-4-(3-fluoro-4-methoxybenzyl)-3-(hydroxymethyl)-1H-1,2,4-triazol-5(4H)-one] | 250 to 2000 nM
25 | COc1cccc(Cn2c(CO)nn(-c3ccc(-c4cn[nH]c4)cc3)c2=O)c1F [Example 160, 1-(4-(1H-pyrazol-4-yl)phenyl)-4-(2-fluoro-3-methoxybenzyl)-3-(hydroxymethyl)-1H-1,2,4-triazol-5(4H)-one] | 250 to 2000 nM
26 | COc1cccc(Cn2c(C)nn(-c3ccc(-c4ccnc(N)c4)cc3)c2=O)c1 [Example 161, 1-(4-(2-aminopyridin-4-yl)phenyl)-4-(3-methoxybenzyl)-3-methyl-1H-1,2,4-triazol-5(4H)-one] | 50 to 250 nM
27 | COc1cccc(Cn2cnn(-c3ccc(-c4ccnc(N)c4)cc3)c2=O)c1 [Example 162, 1-(4-(2-aminopyridin-4-yl)phenyl)-4-(3-methoxybenzyl)-1H-1,2,4-triazol-5(4H)-one] | 5 to 50 nM
28 | COc1cccc(Cn2cnn(-c3ccc(-c4ncnc5[nH]ccc45)cc3)c2=O)c1 [Example 163, 1-(4-(7H-pyrrolo[2,3-d]pyrimidin-4-yl)phenyl)-4-(3-methoxybenzyl)-1H-1,2,4-triazol-5(4H)-one] | 50 to 250 nM
29 | COc1cccc(Cn2c(C)nn(-c3ccc(-c4ncnc5[nH]ccc45)cc3)c2=O)c1 [Example 164, 1-(4-(7H-pyrrolo[2,3-d]pyrimidin-4-yl)phenyl)-4-(3-methoxybenzyl)-3-methyl-1H-1,2,4-triazol-5(4H)-one] | 250 to 2000 nM
30 | COc1cccc(Cn2c(C)nn(-c3ccc(-c4ccnc5[nH]ccc45)cc3)c2=O)c1 [Example 165, 1-(4-(1H-pyrrolo[2,3-b]pyridin-4-yl)phenyl)-4-(3-methoxybenzyl)-3-methyl-1H-1,2,4-triazol-5(4H)-one] | 5 to 50 nM
31 | COc1cccc(Cn2c(C)nn(-c3ccc(-c4ccnc(N)n4)cc3)c2=O)c1 [Example 166, 1-(4-(2-aminopyrimidin-4-yl)phenyl)-4-(3-methoxybenzyl)-3-methyl-1H-1,2,4-triazol-5(4H)-one] | 5 to 50 nM
32 | COc1cccc(Cn2cnn(-c3ccc(-c4ccnc5[nH]ccc45)cc3)c2=O)c1 [Example 169, 1-(4-(1H-pyrrolo[2,3-b]pyridin-4-yl)phenyl)-4-(3-methoxybenzyl)-1H-1,2,4-triazol-5(4H)-one] | < 5 nM
33 | COc1cccc(Cn2cnn(-c3ccc(-c4ccnc(N)n4)cc3)c2=O)c1 [Example 170, 1-(4-(2-aminopyrimidin-4-yl)phenyl)-4-(3-methoxybenzyl)-1H-1,2,4-triazol-5(4H)-one] | 5 to 50 nM
34 | COc1cccc(Cn2nnn(-c3ccc(-c4cn[nH]c4)cc3)c2=O)c1 [Example 172, 1-(4-(1H-pyrazol-4-yl)phenyl)-4-(3-methoxybenzyl)-1H-tetrazol-5(4H)-one] | 5 to 50 nM
35 | O=c1n(Cc2cccc(F)c2)nnn1-c1ccc(-c2cn[nH]c2)cc1 [Example 173, 1-(4-(1H-pyrazol-4-yl)phenyl)-4-(3-fluorobenzyl)-1H-tetrazol-5(4H)-one] | 50 to 250 nM
